Measurements taken from patent publication US20260092073A1, “NOVEL COMPOUNDS” (Hoffmann-La Roche Inc., priority 2023, published 2026).

Assays:
NLRP3 [1] = biological target: T1, NLRP3 (Homo sapiens, UniProt Q96P20); assay: THP-1 cells pyroptosis assay; format: cell-based; parameters: Seed THP-1 cells (25,000 cells/well) containing 1.0 μg/ml LPS; host or cells: THP-1 cells, LPS-primed, nigericin-stimulated; conditions: LPS 1.0 μg/ml, nigericin 5 μM, resazurin readout
Description: It is well established that the activation of NLRP3 leads to cell pyroptosis and this feature plays an important part in the manifestation of clinical disease (Yan-gang Liu et al., Cell Death & Disease, 2017, 8(2), e2579; Alexander Wree et al., Hepatology, 2014, 59(3), 898-910; Alex Baldwin et al., Journal of Medicinal Chemistry, 2016, 59(5), 1691-1710; Ema Ozaki et al., Journal of Inflammation Research, 2015, 8, 15-27; Zhen Xie & Gang Zhao, Neuroimmunology Neuroinflammation, 2014, 1(2), 60-65; Mattia Cocco et al., Journal of Medicinal Chemistry, 2014, 57(24), 10366-10382; T. Satoh et al., Cell Death & Disease, 2013, 4, e644). Therefore, it is anticipated that inhibitors of NLRP3 will block pyroptosis, as well as the release of pro-inflammatory cytokines (e.g. […]) from the cell.
THP-1 cells (ATCC #TIB-202) were grown in RPMI containing L-glutamine (Gibco #11835) supplemented with 1 mM sodium pyruvate (Sigma #S8636) and penicillin (100 units/ml)/streptomycin (0.1 mg/ml) (Sigma #P4333) in 10% Fetal Bovine Serum (FBS) (Sigma #F0804). The cells were routinely passaged and grown to confluency (˜10^6 cells/ml). On the day of the experiment, THP-1 cells were harvested and resuspended into RPMI medium (without FBS). The cells were then counted and viability (>90%) checked by Trypan blue (Sigma #T8154). Appropriate dilutions were made to give a concentration of 625,000 cells/ml. To this diluted cell solution was added LPS (Sigma #L4524) to give a […] Final Assay Concentration (FAC). 40 μl of the final preparation was aliquoted into each well of a 96-well plate. The plate thus prepared was used for compound screening.
The following method step-by-step assay was followed for compound screening.
Seed THP-1 cells (25,000 cells/well) containing 1.0 μg/ml LPS in 40 μl of RPMI medium (without FBS) in 96-well, black walled, clear bottom cell culture plates coated with poly-D-lysine (VWR #734-0317)
Add 5 μl compound (8 points half-log dilution, with 10 μM top dose) or vehicle (DMSO 0.1% FAC) to the appropriate wells
(§1) Incubate for 3 hours at 37° C., 5% CO2
Add 5 μl nigericin (Sigma #N7143) (FAC 5 μM) to all wells
(§2) Incubate for 1 hr at 37° C., 5% CO2
At the end of the incubation period, spin plates at 300 xg for 3 mins and remove supernatant
Then add 50 μl of resazurin (Sigma #R7017) (FAC 100 μM resazurin in RPMI medium without FBS) and incubate plates for a further 1-2 hours at 37° C. and 5% CO2
Plates were read in an Envision reader at Ex 560 nm and Em 590 nm
(§3) IC50 data is fitted to a non-linear regression equation (log inhibitor vs response-variable slope 4-parameters)

NLRP3 [2] = biological target: T1, NLRP3; assay: Human whole blood IL-1β release assay; format: cell-based; parameters: Human whole blood in Li-heparin tubes was obtained from healthy donors; from tissue; host or cells: human whole blood from healthy donors; conditions: LPS, nigericin 10 μM, IL-1β by AlphaLisa
Description: For systemic delivery, the ability to inhibit NLRP3 when the compounds are present within the bloodstream is of great importance. For this reason, the NLRP3 inhibitory activity of a number of compounds in human whole blood was investigated in accordance with the following protocol.
Human whole blood in Li-heparin tubes was obtained from healthy donors from a volunteer donor panel.
Plate out 80 μl of whole blood containing […] of LPS in 96-well, clear bottom cell culture plate (Corning #3585)
Add 10 μl compound (8 points half-log dilution with 10 μM top dose) or vehicle (DMSO 0.1% FAC) to the appropriate wells
as §1
Add 10 μl nigericin (Sigma #N7143) (10 μM FAC) to all wells
as §2
At the end of the incubation period, spin plates at 300 xg for 5 mins to pellet cells and remove 20 μl of supernatant and add to 96-well v-bottom plates for IL-1β analysis (note: these plates containing the supernatants can be stored at −80° C. to be analysed at a later date)
IL-1β was measured according to the manufacturer protocol (Perkin Elmer-AlphaLisa IL-1 Kit AL220F-5000)
as §3

T1 sequence (Q96P20 whole entry): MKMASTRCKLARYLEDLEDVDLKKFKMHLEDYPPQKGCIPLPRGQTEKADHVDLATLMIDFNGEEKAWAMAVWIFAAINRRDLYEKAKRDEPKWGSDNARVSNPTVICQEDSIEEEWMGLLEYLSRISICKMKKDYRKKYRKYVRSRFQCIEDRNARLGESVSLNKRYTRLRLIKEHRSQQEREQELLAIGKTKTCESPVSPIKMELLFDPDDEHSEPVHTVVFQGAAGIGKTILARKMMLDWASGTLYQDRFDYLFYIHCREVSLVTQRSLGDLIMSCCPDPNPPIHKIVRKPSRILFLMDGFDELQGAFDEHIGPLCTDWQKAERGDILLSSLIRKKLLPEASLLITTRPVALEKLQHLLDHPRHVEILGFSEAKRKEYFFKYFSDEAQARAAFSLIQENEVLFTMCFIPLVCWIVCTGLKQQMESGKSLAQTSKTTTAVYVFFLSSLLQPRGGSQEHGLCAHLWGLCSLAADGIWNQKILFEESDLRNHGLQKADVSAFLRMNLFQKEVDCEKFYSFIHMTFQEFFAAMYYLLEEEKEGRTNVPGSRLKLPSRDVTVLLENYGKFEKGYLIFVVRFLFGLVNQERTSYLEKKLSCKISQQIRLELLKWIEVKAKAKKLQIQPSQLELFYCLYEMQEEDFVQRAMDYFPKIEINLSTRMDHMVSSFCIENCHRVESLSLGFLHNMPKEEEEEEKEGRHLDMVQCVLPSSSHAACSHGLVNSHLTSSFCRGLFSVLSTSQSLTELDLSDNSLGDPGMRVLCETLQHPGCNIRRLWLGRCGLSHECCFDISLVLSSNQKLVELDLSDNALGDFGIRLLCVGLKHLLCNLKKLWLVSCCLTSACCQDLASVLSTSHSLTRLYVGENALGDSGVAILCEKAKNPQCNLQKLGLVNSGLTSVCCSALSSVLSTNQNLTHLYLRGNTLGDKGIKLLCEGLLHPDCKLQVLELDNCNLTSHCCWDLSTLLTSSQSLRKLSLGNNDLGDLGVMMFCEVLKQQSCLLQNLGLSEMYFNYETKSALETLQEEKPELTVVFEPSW

Cc1cc(C#N)cc(O)c1-c1cnc2oc(N[C@@H]3CCCN(CCO)C3)nc2n1 [Example 1, 3-Hydroxy-4-[2-[[(3R)-1-(2-hydroxyethyl)-3-piperidyl]amino]oxazolo[4,5-b]pyrazin-5-yl]-5-methyl-benzonitrile;2,2,2-trifluoroacetic Acid]
IC50 (NLRP3 [1]): 3.3 nM | IC50 (NLRP3 [2]): 24.2 nM

CCN1C[C@@H](O)C[C@@H](Nc2nc3nc(-c4c(C)cc(C#N)cc4O)cnc3o2)C1 [Example 2, 4-[2-[[(3R,5S)-1-Ethyl-5-hydroxy-3-piperidyl]amino]oxazolo[4,5-b]pyrazin-5-yl]-3-hydroxy-5-methyl-benzonitrile;2,2,2-trifluoroacetic Acid]
IC50 (NLRP3 [1]): 4.3 nM | IC50 (NLRP3 [2]): 19.6 nM

COCc1cc(C#N)cc(O)c1-c1ccc2oc(N[C@@H]3CCCN(CCO)C3)nc2n1 [Example 3, 3-Hydroxy-4-[2-[[(3R)-1-(2-hydroxyethyl)-3-piperidyl]amino]oxazolo[4,5-b]pyridin-5-yl]-5-(methoxymethyl)benzonitrile]
IC50 (NLRP3 [1]): 27.9 nM | IC50 (NLRP3 [2]): 35.2 nM

Cc1cc(C#N)cc(O)c1-c1ccc2oc(N[C@@H]3CCCN(CCc4ncco4)C3)nc2n1 [Example 4, 3-Hydroxy-5-methyl-4-[2-[[(3R)-1-(2-oxazol-2-ylethyl)-3-piperidyl]amino]oxazolo[4,5-b]pyridin-5-yl]benzonitrile]
IC50 (NLRP3 [1]): 26.1 nM | IC50 (NLRP3 [2]): 192 nM

Cc1cc(C(F)(F)F)cc(O)c1-c1ccc2oc(N[C@@H]3C[C@H](O)CN(CCCC(=O)O)C3)nc2n1 [Example 5, 4-[(3S,5R)-3-Hydroxy-5-[[5-[2-hydroxy-6-methyl-4-(trifluoromethyl)phenyl]oxazolo[4,5-b]pyridin-2-yl]amino]-1-piperidyl]butanoic Acid]
IC50 (NLRP3 [1]): 51 nM | IC50 (NLRP3 [2]): 432 nM

Cc1cc(C(F)(F)F)cc(O)c1-c1ccc2oc(N[C@@H]3C[C@H](O)CN(CCO)C3)nc2n1 [Example 6, (3S,5R)-1-(2-Hydroxyethyl)-5-[[5-[2-hydroxy-6-methyl-4-(trifluoromethyl)phenyl]oxazolo[4,5-b]pyridin-2-yl]amino]piperidin-3-ol]
IC50 (NLRP3 [1]): 12 nM | IC50 (NLRP3 [2]): 95 nM

Cc1cc(C#N)cc(O)c1-c1cnc2oc(N[C@@H]3C[C@H](O)CN(C)C3)nc2n1 [Example 7, 3-Hydroxy-4-[2-[[(3R,5S)-5-hydroxy-1-methyl-3-piperidyl]amino]oxazolo[4,5-b]pyrazin-5-yl]-5-methyl-benzonitrile;2,2,2-trifluoroacetic Acid]
IC50 (NLRP3 [1]): 10 nM | IC50 (NLRP3 [2]): 17 nM

COc1cc(-c2c(C)cc(C#N)cc2O)nc2nc(N[C@@H]3CCCN(CCO)C3)oc12 [Example 8, 3-Hydroxy-4-[2-[[(3R)-1-(2-hydroxyethyl)-3-piperidyl]amino]-7-methoxy-oxazolo[4,5-b]pyridin-5-yl]-5-methyl-benzonitrile;2,2,2-trifluoroacetic Acid]
IC50 (NLRP3 [1]): 11 nM | IC50 (NLRP3 [2]): 28 nM

Cc1cc(C#N)cc(O)c1-c1ccc2oc(N[C@H]3CNC[C@@H](O)C3)nc2n1 [Example 9, 3-Hydroxy-4-[2-[[(3R,5S)-5-hydroxy-3-piperidyl]amino]oxazolo[4,5-b]pyridin-5-yl]-5-methyl-benzonitrile]
IC50 (NLRP3 [1]): 45 nM | IC50 (NLRP3 [2]): 84 nM

Cc1cc(C#N)cc(O)c1-c1cnc2oc(N[C@@H]3CCCN(CCO)C3)nc2n1 [Example 10, 3-Hydroxy-4-[2-[[(3R)-1-(2-hydroxyethyl)-3-piperidyl]amino]oxazolo[4,5-b]pyrazin-5-yl]-5-methyl-benzonitrile]
IC50 (NLRP3 [1]): 5 nM | IC50 (NLRP3 [2]): 29 nM

COCc1cc2c(c(O)c1-c1cnc3oc(N[C@@H]4CCCN(CCO)C4)nc3n1)CCO2 [Example 11, 5-[2-[[(3R)-1-(2-Hydroxyethyl)-3-piperidyl]amino]oxazolo[4,5-b]pyrazin-5-yl]-6-(methoxymethyl)-2,3-dihydrobenzofuran-4-ol]
IC50 (NLRP3 [1]): 4 nM | IC50 (NLRP3 [2]): 8 nM

Cc1cc2c(c(O)c1-c1cnc3oc(N[C@@H]4CCCN(CCO)C4)nc3n1)CCO2 [Example 13, 5-[2-[[(3R)-1-(2-Hydroxyethyl)-3-piperidyl]amino]oxazolo[4,5-b]pyrazin-5-yl]-6-methyl-2,3-dihydrobenzofuran-4-ol]
IC50 (NLRP3 [1]): 0.8 nM | IC50 (NLRP3 [2]): 19 nM

COc1cc(-c2c(C)cc(C#N)cc2O)nc2nc(N[C@@H]3CCCN(CCO)C3)oc12 [Example 16, 3-Hydroxy-4-[2-[[(3R)-1-(2-hydroxyethyl)-3-piperidyl]amino]-7-methoxy-oxazolo[4,5-b]pyridin-5-yl]-5-methyl-benzonitrile]
IC50 (NLRP3 [1]): 8 nM | IC50 (NLRP3 [2]): 22 nM

CCN1C[C@@H](O)C[C@@H](Nc2nc3nc(-c4c(C)cc(C#N)cc4O)cnc3o2)C1 [Example 17, 4-[2-[[(3R,5S)-1-Ethyl-5-hydroxy-3-piperidyl]amino]oxazolo[4,5-b]pyrazin-5-yl]-3-hydroxy-5-methyl-benzonitrile]
IC50 (NLRP3 [1]): 3 nM | IC50 (NLRP3 [2]): 18 nM

COc1cc(-c2c(C)cc3c(c2O)CCC3)nc2nc(N[C@@H]3CCCN(CCO)C3)oc12 [Example 19, 5-[2-[[(3R)-1-(2-Hydroxyethyl)-3-piperidyl]amino]-7-methoxy-oxazolo[4,5-b]pyridin-5-yl]-6-methyl-indan-4-ol]
IC50 (NLRP3 [1]): 4 nM

COCc1cc(C#N)cc(O)c1-c1cc(OC)c2oc(N[C@@H]3CCCN(CCO)C3)nc2n1 [Example 20, 3-Hydroxy-4-[2-[[(3R)-1-(2-hydroxyethyl)-3-piperidyl]amino]-7-methoxy-oxazolo[4,5-b]pyridin-5-yl]-5-(methoxymethyl)benzonitrile]
IC50 (NLRP3 [1]): 75 nM | IC50 (NLRP3 [2]): 68 nM

COCc1cc2c(c(O)c1-c1cc(OC)c3oc(N[C@@H]4CCCN(CCO)C4)nc3n1)CCO2 [Example 21, 5-[2-[[(3R)-1-(2-Hydroxyethyl)-3-piperidyl]amino]-7-methoxy-oxazolo[4,5-b]pyridin-5-yl]-6-(methoxymethyl)-2,3-dihydrobenzofuran-4-ol]
IC50 (NLRP3 [1]): 9 nM

COc1cc(-c2c(C)cc3c(c2O)CCO3)nc2nc(N[C@@H]3CCCN(CCO)C3)oc12 [Example 22, 5-[2-[[(3R)-1-(2-Hydroxyethyl)-3-piperidyl]amino]-7-methoxy-oxazolo[4,5-b]pyridin-5-yl]-6-methyl-2,3-dihydrobenzofuran-4-ol]
IC50 (NLRP3 [1]): 5 nM | IC50 (NLRP3 [2]): 39 nM

CCN1C[C@@H](O)C[C@@H](Nc2nc3nc(-c4c(O)cc(C#N)cc4COC)cnc3o2)C1 [Example 23, 4-[2-[[(3R,5S)-1-Ethyl-5-hydroxy-3-piperidyl]amino]oxazolo[4,5-b]pyrazin-5-yl]-3-hydroxy-5-(methoxymethyl)benzonitrile;2,2,2-trifluoroacetic Acid]
IC50 (NLRP3 [1]): 44 nM | IC50 (NLRP3 [2]): 34 nM

Cc1cc2c(c(O)c1-c1cnc3oc(N[C@@H]4C[C@H](O)CN(CCO)C4)nc3n1)CCO2 [Example 24, (3S,5R)-1-(2-Hydroxyethyl)-5-[[5-(4-hydroxy-6-methyl-2,3-dihydrobenzofuran-5-yl)oxazolo[4,5-b]pyrazin-2-yl]amino]piperidin-3-ol]
IC50 (NLRP3 [1]): 19 nM | IC50 (NLRP3 [2]): 53 nM
